Test results reported in ChEMBL document CHEMBL1201862, “PubChem BioAssay data set” (2004).
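Each compound was tested at five concentrations against cells in 96-well plates for 48 hours. GI50 marks 50% less growth.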 Calls of active or inactive are those of the source. Rule as the data show it: active = GI50 up to about 1.1 µM and inactive = higher.

Columns and labels:
Assay in all cases: DTP human tumour cell line panel, 48 h
COLO 205 = system: COLO 205
DU-145 = system: DU-145
HCT-116 = system: HCT-116
LOX IMVI = system: LOX IMVI
M14 = system: M14
MOLT-4 = system: MOLT-4
NCI-H460 = system: NCI-H460
NCI/ADR-RES = system: NCI/ADR-RES
OVCAR-8 = system: OVCAR-8
RPMI-8226 = system: RPMI-8226
SF-268 = system: SF-268
SK-MEL-28 = system: SK-MEL-28
SN12C = system: SN12C
SW-620 = system: SW-620
TK-10 = system: TK-10
U-251 = system: U-251
IGROV-1 = system: IGROV-1
KM12 = system: KM12
NCI-H522 = system: NCI-H522
OVCAR-4 = system: OVCAR-4

Measured: GI50

Cc1ccc2nc(-c3ccc(-c4nc5ccc(C)cc5o4)c(O)c3)oc2c1
inactive: COLO 205 > 100 µM | DU-145 > 100 µM | HCT-116 > 100 µM | LOX IMVI > 100 µM | M14 > 100 µM | MOLT-4 > 100 µM | NCI-H460 > 100 µM | NCI/ADR-RES > 100 µM | OVCAR-8 > 100 µM | RPMI-8226 > 100 µM | SF-268 > 100 µM | SK-MEL-28 > 100 µM | SN12C > 100 µM | SW-620 > 100 µM | TK-10 > 100 µM | U-251 > 100 µM

O=C1C2C3CCC(C2C(=O)N1CO)C1C2C(=O)N(CO)C(=O)C2C31 (stereo not given)
inactive: COLO 205 40.4 µM | HCT-116 28.2 µM | IGROV-1 > 76 µM | KM12 > 89.3 µM | LOX IMVI 37.5 µM | M14 > 66.7 µM | MOLT-4 25.1 µM | NCI-H460 22.7 µM | NCI-H522 65.9 µM | OVCAR-4 > 43.9 µM | OVCAR-8 32.4 µM | RPMI-8226 21.1 µM | SF-268 > 53.5 µM | SK-MEL-28 > 58.9 µM | SN12C > 47.2 µM | SW-620 26.2 µM | TK-10 > 100 µM | U-251 > 40.3 µM

Cc1cc(C)nc(NS(=O)(=O)c2ccc(NC(=O)c3cccc4c(Nc5ccc(S(=O)(=O)Nc6nc(C)cc(C)n6)cc5)c5ccc(Cl)cc5nc34)cc2)n1
inactive: COLO 205 33.8 µM | HCT-116 28.1 µM | IGROV-1 46.2 µM | KM12 33.1 µM | LOX IMVI 29.2 µM | M14 37.4 µM | MOLT-4 33.3 µM | NCI-H460 37 µM | NCI-H522 15.6 µM | OVCAR-4 35.6 µM | OVCAR-8 34.7 µM | RPMI-8226 28.2 µM | SF-268 28.6 µM | SK-MEL-28 29.6 µM | SN12C 35.5 µM | SW-620 54.1 µM | TK-10 30.8 µM | U-251 27.5 µM

CC(C)C1OC2(C)OC(=N)C1(C#N)C(C#N)(C#N)C2C (stereo not given)
inactive: COLO 205 14.5 µM | DU-145 28.4 µM | HCT-116 27.2 µM | IGROV-1 > 10 µM | KM12 52 µM | LOX IMVI 19 µM | M14 14.6 µM | MOLT-4 30.1 µM | NCI-H460 15.8 µM | NCI/ADR-RES 54.8 µM | OVCAR-8 25.8 µM | SF-268 20.1 µM | SK-MEL-28 37.1 µM | SN12C 13.9 µM | SW-620 26.6 µM | TK-10 47.1 µM | U-251 24.2 µM

COc1ccc(N2C(=O)C3c4[nH]c5ccccc5c4C4CCCCCCC4C3C2=O)cc1 (stereo not given)
inactive: COLO 205 13.2 µM | HCT-116 3.85 µM | IGROV-1 18.2 µM | KM12 > 51.2 µM | LOX IMVI 5 µM | M14 11.9 µM | MOLT-4 8 µM | NCI-H460 7.18 µM | NCI-H522 13.9 µM | OVCAR-4 15.9 µM | OVCAR-8 3.8 µM | RPMI-8226 50.4 µM | SF-268 12.7 µM | SK-MEL-28 18.8 µM | SN12C 4.79 µM | SW-620 7.14 µM | TK-10 20.1 µM | U-251 4.06 µM

CCOC(=O)/C(=C/c1ccc(C(F)(F)F)cc1)N(CC)CC
inactive: COLO 205 > 100 µM | HCT-116 40 µM | IGROV-1 47.8 µM | KM12 44.4 µM | LOX IMVI > 100 µM | M14 > 100 µM | MOLT-4 96.4 µM | NCI-H460 > 100 µM | NCI-H522 31.6 µM | OVCAR-4 78.9 µM | OVCAR-8 56 µM | RPMI-8226 > 100 µM | SF-268 72.3 µM | SK-MEL-28 > 100 µM | SN12C 53.3 µM | SW-620 84.1 µM | TK-10 > 100 µM | U-251 41 µM

O=C(O)C1Cc2[nH]cnc2CN1 (stereo not given)
inactive: COLO 205 > 100 µM | HCT-116 > 100 µM | IGROV-1 > 100 µM | KM12 > 100 µM | LOX IMVI > 100 µM | M14 > 100 µM | MOLT-4 > 100 µM | NCI-H460 > 100 µM | NCI-H522 > 100 µM | OVCAR-4 > 100 µM | OVCAR-8 > 100 µM | RPMI-8226 > 100 µM | SF-268 > 100 µM | SK-MEL-28 > 100 µM | SN12C > 100 µM | SW-620 > 100 µM | TK-10 > 100 µM | U-251 > 100 µM

CCOC(=O)C(Cc1ccc([N+](=O)[O-])cc1)NC(=O)CC1c2ccccc2-c2ccccc21 (stereo not given)
inactive: COLO 205 > 100 µM | HCT-116 > 100 µM | IGROV-1 > 100 µM | KM12 > 100 µM | LOX IMVI > 100 µM | M14 22.9 µM | MOLT-4 > 100 µM | NCI-H460 > 100 µM | NCI-H522 > 100 µM | OVCAR-4 55 µM | OVCAR-8 63.8 µM | RPMI-8226 > 100 µM | SF-268 50.7 µM | SK-MEL-28 90.8 µM | SN12C 67.8 µM | SW-620 > 100 µM | TK-10 32.7 µM | U-251 43.9 µM

COC(=O)C1CC/C(=N\c2cccc(C(F)(F)F)c2)N1 (stereo not given)
inactive: COLO 205 > 100 µM | HCT-116 > 100 µM | IGROV-1 > 100 µM | KM12 > 100 µM | LOX IMVI > 100 µM | M14 > 100 µM | MOLT-4 > 100 µM | NCI-H460 > 100 µM | NCI-H522 > 100 µM | OVCAR-4 > 100 µM | OVCAR-8 > 100 µM | RPMI-8226 > 100 µM | SF-268 > 100 µM | SK-MEL-28 > 100 µM | SN12C > 100 µM | SW-620 > 100 µM | TK-10 > 100 µM | U-251 > 100 µM

O=S(=O)(O)c1cc(O)c2c(O)c(/N=N/c3ccc(/C=C/c4ccc(/N=N/c5c(S(=O)(=O)O)cc6cc(S(=O)(=O)O)cc(O)c6c5O)cc4S(=O)(=O)O)c(S(=O)(=O)O)c3)c(S(=O)(=O)O)cc2c1
inactive: COLO 205 > 100 µM | HCT-116 > 100 µM | IGROV-1 > 100 µM | KM12 32.5 µM | LOX IMVI > 100 µM | M14 > 100 µM | MOLT-4 > 100 µM | NCI-H460 > 100 µM | NCI-H522 > 100 µM | OVCAR-4 > 100 µM | OVCAR-8 > 100 µM | RPMI-8226 > 100 µM | SF-268 > 100 µM | SK-MEL-28 > 100 µM | SN12C > 100 µM | SW-620 > 100 µM | TK-10 > 100 µM | U-251 > 100 µM

CC12c3ccccc3C(OC=O)(c3ccccc31)C1(C)c3ccccc3C2(OC=O)c2ccccc21
inactive: COLO 205 > 100 µM | HCT-116 > 100 µM | IGROV-1 > 100 µM | KM12 > 100 µM | LOX IMVI > 100 µM | M14 > 100 µM | MOLT-4 25.2 µM | NCI-H460 81.3 µM | NCI-H522 > 100 µM | OVCAR-4 > 100 µM | OVCAR-8 > 100 µM | RPMI-8226 > 100 µM | SF-268 > 100 µM | SK-MEL-28 > 100 µM | SN12C > 100 µM | SW-620 > 100 µM | TK-10 > 100 µM | U-251 95.5 µM
